{"source": "paper PMC8020607", "about": "(Computational Biology and Chemistry, 2021)", "biological_target": "T1, C5a (recombinant human C5a) (Homo sapiens, UniProt P01031)", "T1 sequence (P01031 678-751 limits assumed)": "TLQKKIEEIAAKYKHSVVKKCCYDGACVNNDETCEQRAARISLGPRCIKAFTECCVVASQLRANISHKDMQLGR", "test": "intrinsic tyrosine fluorescence titration, non-linear fit", "assay_type": "binding", "note": "pKd: −log10 of the molar value."}
{"compound": "C[C@]12C=CC(=O)C=C1CC[C@@H]1[C@@H]2C(=O)C[C@@]2(C)[C@H]1CC[C@]2(O)C(=O)CO", "note": "[prednisone]", "values": [{"measurement": "pKd", "value": "~6.42"}]}
